Assay results: ChEMBL document CHEMBL4602617, “Discovery and optimization of heteroaryl piperazines as potent and selective PI3Kδ inhibitors” (Bioorg Med Chem Lett, 2020)

What was measured:
[1] = target: Adenosine receptor A2a (Homo sapiens) (UniProt P29274); test: Displacement of [3H]CGS-21680 from full-length recombinant human A2A receptor expressed in HEK293 cells at 10 uM measured after 90 mins by scintillation counting method relative to control; format: cell-based
[2] = target: RAC-beta serine/threonine-protein kinase (Homo sapiens, UniProt P31751); test: Inhibition of recombinant full length human His-tagged AKT2 expressed in baculovirus expression system using Ser/Thr-06 peptide as substrate incubated for 60 mins in presence of ATP by Z'-LYTE assay
[3] = target: Calcium/calmodulin-dependent protein kinase type II subunit beta (Homo sapiens, UniProt Q13554); test: Inhibition of recombinant full length human His-tagged CAMK2beta expressed in baculovirus expression system using serine/threonine-17 peptide as substrate incubated for 60 mins in presence of ATP by Z'-LYTE assay
[4] = target: Glutamate receptor ionotropic, AMPA (Rattus norvegicus) (UniProt P19491+P19492+P19493+P19490); test: Displacement of [3H]AMPA from glutamate AMPA receptor in Wistar rat cerebral cortical membranes at 10 uM incubated for 90 mins by radiometric scintillation analysis relative to control
[5] = target: Protein kinase C iota type (Homo sapiens, UniProt P41743); test: Inhibition of recombinant full length human His-tagged PRKCI expressed in baculovirus expression system using serine/threonine-7 peptide as substrate incubated for 60 mins in presence of ATP by Z'-LYTE assay
[6] = Distribution coefficient, logD of compound by HPLC analysis; format: physicochemical; conditions: octanol/water
[7] = target: T1, Mitogen-activated protein kinase 14 (Homo sapiens, UniProt Q16539); test: Inhibition of recombinant full length GST-tagged human MAPK14 expressed in Escherichia coli using Ser/Thr 04 as substrate after 1 hr in presence of ATP by Z'LYTE assay
[8] = target: Serine/threonine-protein kinase Chk1 (Homo sapiens, UniProt O14757); test: Inhibition of recombinant human full-length His-tagged CHEK1 expressed in baculovirus expression system using FRET-labeled Ser/Thr 19 peptide as substrate measured after 1 hr in presence of ATP by Z'-lyte assay
[9] = target: C-C chemokine receptor type 1 (Homo sapiens) (UniProt P32246); test: Displacement of [125I]MIP-1alpha from recombinant full length human recombinant CCR1 expressed in Chem2 cells at 10 uM measured after 3 hrs by radiometric scintillation analysis relative to control; format: cell-based
[10] = target: T1, Mitogen-activated protein kinase 14; test: Inhibition of recombinant full length human p38alpha expressed in Escherichia coli at 10 uM using MBP as substrate after 30 mins by radiometric scintillation analysis relative to control
[11] = target: Serine/threonine-protein kinase mTOR (Homo sapiens, UniProt P42345); test: Inhibition of recombinant human GST-tagged mTOR catalytic domain (1360 to 2549 residues) expressed in baculovirus expression system using serine/threonine-11 peptide as substrate incubated for 60 mins in presence of ATP by Z'-LYTE assay
[12] = target: Serine/threonine-protein kinase PLK1 (Homo sapiens, UniProt P53350); test: Inhibition of recombinant full length human His-tagged PLK1 expressed in baculovirus expression system using serine/threonine-16 peptide as substrate incubated for 60 mins in presence of ATP by Z'-LYTE assay
[13] = target: Tyrosine-protein kinase receptor TYRO3 (Homo sapiens, UniProt Q06418); test: Inhibition of recombinant human GST-tagged RSE catalytic domain (451 to 890 residues) expressed in baculovirus expression system using tyrosine-2 peptide as substrate incubated for 60 mins in presence of ATP by Z'-LYTE assay
[14] = target: Cyclin-dependent kinase 1/cyclin B1 (Homo sapiens, UniProt P06493); test: Inhibition of recombinant full length human His-tagged CDK1/CyclinB expressed in baculovirus expression system using serine/threonine-18 peptide as substrate incubated for 60 mins in presence of ATP by Z'-LYTE assay
[15] = target: Ribosomal protein S6 kinase alpha-2 (Homo sapiens, UniProt Q15349); test: Inhibition of recombinant full length human GST-tagged RPS6KA2 expressed in insect expression system using Ser/Thr 06 peptide as substrate incubated for 60 mins in presence of ATP by Z'-LYTE assay
[16] = target: SRSF protein kinase 2 (Homo sapiens, UniProt P78362); test: Inhibition of recombinant full length human GST-tagged SRPK2 expressed in baculovirus expression system using serine/threonine-07 peptide as substrate incubated for 60 mins in presence of ATP by Z'-LYTE assay
[17] = target: Serine/threonine-protein kinase SIK2 (Homo sapiens, UniProt Q9H0K1); test: Inhibition of recombinant full length GST-tagged human SNF1LK2 expressed in baculovirus expression system using Ser/Thr 25 as substrate in presence of ATP after 1 hr by Z'LYTE assay
[18] = target: Serine/threonine-protein kinase TBK1 (Homo sapiens, UniProt Q9UHD2); test: Inhibition of recombinant full length human GST-tagged TBK1 expressed in insect expression system using serine/threonine-5 peptide as substrate incubated for 60 mins in presence of ATP by Z'-LYTE assay
[19] = target: PAS domain-containing serine/threonine-protein kinase (Homo sapiens, UniProt Q96RG2); test: Inhibition of recombinant human GST-tagged PASK catalytic domain expressed in baculovirus expression system using serine/threonine-7 peptide as substrate incubated for 60 mins in presence of ATP by Z'-LYTE assay
[20] = species: Rattus norvegicus; test: Inhibition of rat P2Y receptor at 10 uM relative to control
[21] = target: Muscarinic acetylcholine receptor M5 (Homo sapiens) (UniProt P08912); test: Displacement of [3H]N-Methylscopolamine from full length human recombinant Muscarinic M5 receptor expressed in CHOK1 cells at 10 uM measured after 120 mins by radiometric scintillation analysis relative to control; format: cell-based; conditions: CHO-K1
[22] = target: Cyclin-dependent kinase 5/CDK5 activator 1 (Homo sapiens, UniProt Q00535); test: Inhibition of recombinant full length human His-tagged CDK5/p35 expressed in baculovirus expression system using serine/threonine-12 peptide as substrate incubated for 60 mins in presence of ATP by Z'-LYTE assay
[23] = target: Dual specificity tyrosine-phosphorylation-regulated kinase 3 (Homo sapiens, UniProt O43781); test: Inhibition of recombinant full length human GST-tagged DYRK3 expressed in baculovirus expression system using serine/threonine-9 peptide as substrate incubated for 60 mins in presence of ATP by Z'-LYTE assay
[24] = target: Muscarinic acetylcholine receptor M3 (Homo sapiens) (UniProt P20309); test: Displacement of [3H]N-Methylscopolamine from full length human recombinant Muscarinic M3 receptor expressed in CHOK1 cells at 10 uM measured after 120 mins by radiometric scintillation analysis relative to control; format: cell-based; conditions: CHO-K1
[25] = target: Mitogen-activated protein kinase 10 (Homo sapiens, UniProt P53779); test: Inhibition of recombinant full length human GST-tagged JNK3 expressed in baculovirus expression system using serine/threonine-4 peptide as substrate incubated for 60 mins in presence of ATP by Z'-LYTE assay
[26] = target: Nociceptin receptor (Homo sapiens) (UniProt P41146); test: Displacement of [3H]nociceptin from full length human recombinant ORL1 receptor expressed in HEK293 cells at 10 uM measured after 60 mins by radiometric scintillation analysis relative to control; format: cell-based
Sequence of Nociceptin receptor (Homo sapiens) (P41146 whole entry): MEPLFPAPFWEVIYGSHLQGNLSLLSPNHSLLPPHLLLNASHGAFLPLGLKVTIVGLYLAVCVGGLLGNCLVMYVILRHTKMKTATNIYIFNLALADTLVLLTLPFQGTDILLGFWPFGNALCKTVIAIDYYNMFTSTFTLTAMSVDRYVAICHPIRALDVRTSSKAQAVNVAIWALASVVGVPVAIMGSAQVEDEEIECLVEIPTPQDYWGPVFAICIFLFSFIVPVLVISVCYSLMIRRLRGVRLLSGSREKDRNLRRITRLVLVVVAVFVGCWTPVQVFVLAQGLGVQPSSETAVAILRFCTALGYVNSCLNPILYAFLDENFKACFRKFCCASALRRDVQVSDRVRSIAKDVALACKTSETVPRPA

T1 sequence (Q16539 whole entry): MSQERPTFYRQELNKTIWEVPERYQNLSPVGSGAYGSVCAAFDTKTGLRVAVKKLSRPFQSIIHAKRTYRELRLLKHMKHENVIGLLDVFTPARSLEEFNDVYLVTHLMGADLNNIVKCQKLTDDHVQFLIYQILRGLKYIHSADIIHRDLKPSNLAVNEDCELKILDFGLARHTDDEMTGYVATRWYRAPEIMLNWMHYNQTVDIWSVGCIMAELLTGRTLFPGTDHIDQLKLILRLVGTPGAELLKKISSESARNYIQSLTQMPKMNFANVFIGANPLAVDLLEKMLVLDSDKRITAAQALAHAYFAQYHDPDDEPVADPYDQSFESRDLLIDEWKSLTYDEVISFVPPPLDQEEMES
Sequence of Protein kinase C iota type (P41743 whole entry): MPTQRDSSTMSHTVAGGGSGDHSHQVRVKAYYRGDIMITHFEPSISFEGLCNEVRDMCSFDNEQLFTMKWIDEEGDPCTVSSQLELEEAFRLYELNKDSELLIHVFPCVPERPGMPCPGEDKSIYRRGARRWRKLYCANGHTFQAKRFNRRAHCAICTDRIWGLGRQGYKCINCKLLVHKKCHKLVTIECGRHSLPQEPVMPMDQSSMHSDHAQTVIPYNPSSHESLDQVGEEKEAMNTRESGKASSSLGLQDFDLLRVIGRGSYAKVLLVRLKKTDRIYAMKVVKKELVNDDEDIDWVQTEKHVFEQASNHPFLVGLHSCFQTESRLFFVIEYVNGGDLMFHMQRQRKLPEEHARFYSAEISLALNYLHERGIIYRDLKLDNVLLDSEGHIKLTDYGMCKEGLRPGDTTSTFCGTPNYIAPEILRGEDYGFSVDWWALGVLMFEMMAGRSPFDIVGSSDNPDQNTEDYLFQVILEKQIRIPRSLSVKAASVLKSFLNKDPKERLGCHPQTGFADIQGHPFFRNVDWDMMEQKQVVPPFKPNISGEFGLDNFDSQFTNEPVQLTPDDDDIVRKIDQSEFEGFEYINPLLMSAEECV
Sequence of PAS domain-containing serine/threonine-protein kinase (Q96RG2 whole entry, the tested form may be a part): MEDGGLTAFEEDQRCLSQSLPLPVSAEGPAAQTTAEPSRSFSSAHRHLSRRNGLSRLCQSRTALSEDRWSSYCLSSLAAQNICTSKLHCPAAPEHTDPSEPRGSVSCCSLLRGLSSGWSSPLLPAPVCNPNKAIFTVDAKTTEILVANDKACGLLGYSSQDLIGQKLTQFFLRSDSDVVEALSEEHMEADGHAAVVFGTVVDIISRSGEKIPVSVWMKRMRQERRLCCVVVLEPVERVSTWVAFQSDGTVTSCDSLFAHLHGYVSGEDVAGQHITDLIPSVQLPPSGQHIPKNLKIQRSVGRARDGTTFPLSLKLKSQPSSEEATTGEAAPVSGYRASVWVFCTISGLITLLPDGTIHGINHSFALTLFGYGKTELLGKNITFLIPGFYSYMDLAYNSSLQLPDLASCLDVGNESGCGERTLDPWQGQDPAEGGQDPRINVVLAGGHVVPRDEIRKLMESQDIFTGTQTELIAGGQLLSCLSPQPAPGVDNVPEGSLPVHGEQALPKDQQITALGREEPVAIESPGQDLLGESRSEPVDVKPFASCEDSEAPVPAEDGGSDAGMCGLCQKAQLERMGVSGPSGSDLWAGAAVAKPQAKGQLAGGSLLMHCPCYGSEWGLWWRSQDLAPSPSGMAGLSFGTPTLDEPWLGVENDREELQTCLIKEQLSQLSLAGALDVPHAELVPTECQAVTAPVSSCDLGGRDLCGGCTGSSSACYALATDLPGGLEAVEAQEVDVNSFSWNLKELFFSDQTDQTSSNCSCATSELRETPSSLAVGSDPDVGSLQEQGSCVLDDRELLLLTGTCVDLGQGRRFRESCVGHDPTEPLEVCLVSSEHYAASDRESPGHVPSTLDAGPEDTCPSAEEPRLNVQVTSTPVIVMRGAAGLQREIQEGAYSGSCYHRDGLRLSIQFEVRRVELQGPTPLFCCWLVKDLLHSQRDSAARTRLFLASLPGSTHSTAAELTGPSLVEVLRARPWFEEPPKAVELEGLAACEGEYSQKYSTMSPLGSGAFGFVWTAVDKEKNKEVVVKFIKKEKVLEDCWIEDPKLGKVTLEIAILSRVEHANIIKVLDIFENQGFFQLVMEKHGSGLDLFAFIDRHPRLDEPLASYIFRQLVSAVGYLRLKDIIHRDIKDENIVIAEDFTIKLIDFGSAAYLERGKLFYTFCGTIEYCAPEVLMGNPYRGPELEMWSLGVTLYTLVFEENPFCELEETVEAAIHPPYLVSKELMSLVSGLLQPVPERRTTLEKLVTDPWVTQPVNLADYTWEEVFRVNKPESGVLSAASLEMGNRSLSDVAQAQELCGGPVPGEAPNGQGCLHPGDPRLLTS
Sequence of SRSF protein kinase 2 (P78362 whole entry): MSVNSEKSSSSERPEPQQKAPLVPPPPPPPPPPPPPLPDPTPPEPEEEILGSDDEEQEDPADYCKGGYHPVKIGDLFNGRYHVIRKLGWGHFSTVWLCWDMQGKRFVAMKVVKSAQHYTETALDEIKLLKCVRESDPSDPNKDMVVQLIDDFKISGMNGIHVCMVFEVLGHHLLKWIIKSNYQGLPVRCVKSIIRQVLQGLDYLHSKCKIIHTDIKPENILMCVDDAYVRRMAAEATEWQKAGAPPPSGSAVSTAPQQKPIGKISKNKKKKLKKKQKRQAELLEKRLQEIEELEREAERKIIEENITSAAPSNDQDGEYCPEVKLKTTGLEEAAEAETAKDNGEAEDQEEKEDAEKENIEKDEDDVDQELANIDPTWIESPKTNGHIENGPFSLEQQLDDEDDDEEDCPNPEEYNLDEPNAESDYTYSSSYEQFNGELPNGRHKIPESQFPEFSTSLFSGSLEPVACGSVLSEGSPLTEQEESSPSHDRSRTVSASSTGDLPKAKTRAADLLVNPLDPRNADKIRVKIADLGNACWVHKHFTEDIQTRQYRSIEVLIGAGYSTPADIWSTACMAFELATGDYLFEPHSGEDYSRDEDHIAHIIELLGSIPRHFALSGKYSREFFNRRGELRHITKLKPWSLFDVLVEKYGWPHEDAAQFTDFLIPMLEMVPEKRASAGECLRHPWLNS
Sequence of Calcium/calmodulin-dependent protein kinase type II subunit beta (Q13554 whole entry): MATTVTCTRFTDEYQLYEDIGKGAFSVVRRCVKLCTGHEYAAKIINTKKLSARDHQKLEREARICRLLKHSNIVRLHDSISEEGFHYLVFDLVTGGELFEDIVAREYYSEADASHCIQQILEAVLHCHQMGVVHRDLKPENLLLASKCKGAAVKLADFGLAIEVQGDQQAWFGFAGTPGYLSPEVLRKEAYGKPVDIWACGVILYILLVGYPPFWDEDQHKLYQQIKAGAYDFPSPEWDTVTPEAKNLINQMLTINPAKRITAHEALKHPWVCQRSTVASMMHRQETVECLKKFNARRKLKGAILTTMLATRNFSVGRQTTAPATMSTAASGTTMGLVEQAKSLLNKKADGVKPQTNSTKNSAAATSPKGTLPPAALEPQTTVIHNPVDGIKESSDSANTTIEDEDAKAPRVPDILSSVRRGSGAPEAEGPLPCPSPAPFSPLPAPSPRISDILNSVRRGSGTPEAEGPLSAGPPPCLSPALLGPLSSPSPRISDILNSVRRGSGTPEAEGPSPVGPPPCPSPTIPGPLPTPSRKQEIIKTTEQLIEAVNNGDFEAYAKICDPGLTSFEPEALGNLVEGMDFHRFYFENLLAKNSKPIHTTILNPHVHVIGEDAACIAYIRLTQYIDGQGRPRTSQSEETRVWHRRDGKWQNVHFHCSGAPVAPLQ
Sequence of Muscarinic acetylcholine receptor M5 (Homo sapiens) (P08912 whole entry): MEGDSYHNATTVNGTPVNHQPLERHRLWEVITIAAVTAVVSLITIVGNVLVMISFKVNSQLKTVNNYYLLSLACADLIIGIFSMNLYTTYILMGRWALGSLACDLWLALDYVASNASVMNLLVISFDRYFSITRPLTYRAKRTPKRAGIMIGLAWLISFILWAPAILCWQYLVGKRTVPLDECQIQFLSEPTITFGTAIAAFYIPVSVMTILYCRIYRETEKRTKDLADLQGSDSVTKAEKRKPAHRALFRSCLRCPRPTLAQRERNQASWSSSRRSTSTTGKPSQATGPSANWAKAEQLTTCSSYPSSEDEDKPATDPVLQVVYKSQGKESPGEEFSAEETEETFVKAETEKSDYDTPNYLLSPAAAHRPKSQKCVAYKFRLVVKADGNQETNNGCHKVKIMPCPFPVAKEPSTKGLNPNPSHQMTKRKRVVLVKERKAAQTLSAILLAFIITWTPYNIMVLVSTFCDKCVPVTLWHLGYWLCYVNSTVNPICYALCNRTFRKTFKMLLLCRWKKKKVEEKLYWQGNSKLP
Sequence of Mitogen-activated protein kinase 10 (P53779 whole entry): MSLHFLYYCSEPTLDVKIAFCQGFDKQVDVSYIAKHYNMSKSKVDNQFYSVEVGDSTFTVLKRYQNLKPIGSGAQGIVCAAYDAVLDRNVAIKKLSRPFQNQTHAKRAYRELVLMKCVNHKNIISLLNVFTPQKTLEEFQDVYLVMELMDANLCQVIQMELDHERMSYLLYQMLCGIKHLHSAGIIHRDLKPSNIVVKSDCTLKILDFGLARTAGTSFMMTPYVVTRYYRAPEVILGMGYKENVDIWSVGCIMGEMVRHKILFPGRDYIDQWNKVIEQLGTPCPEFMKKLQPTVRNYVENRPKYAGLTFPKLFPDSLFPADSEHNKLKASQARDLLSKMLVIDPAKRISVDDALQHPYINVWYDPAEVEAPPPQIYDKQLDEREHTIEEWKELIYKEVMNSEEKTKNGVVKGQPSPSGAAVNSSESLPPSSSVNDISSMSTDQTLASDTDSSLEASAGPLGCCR

Compound `C[C@@H]1C[C@H]1C(=O)N1CCN(c2cnc(C#N)c(-c3cnn(C)c3)n2)C[C@H]1C` has an inhibition [1] of 18%, an IC50 [2] of over 100 µM and an IC50 [3] of over 100 µM. The inhibition [4] was 7%, the IC50 [5] was over 100 µM and the logD [6] was 1.6. It also gave an IC50 [7] of over 100 µM, an IC50 [8] of over 100 µM and an inhibition [9] of 8%. It also gave an inhibition [10] of 19%, an IC50 [11] of over 100 µM and an IC50 [12] of over 100 µM. For the same compound, the IC50 [13] was over 100 µM, the IC50 [14] was over 100 µM and the IC50 [15] was over 100 µM. It also gave an IC50 [16] of over 100 µM, an IC50 [17] of over 100 µM and an IC50 [18] of over 100 µM. For the same compound, the IC50 [19] was over 100 µM, the inhibition [20] was 34% and the inhibition [21] was 1%. For the same compound, the IC50 [22] was over 100 µM, the IC50 [23] was over 100 µM and the inhibition [24] was 0%. It also gave an IC50 [25] of over 100 µM and an inhibition [26] of -1%.
